According to ChEMBL document CHEMBL5537195, “Novel Covalent Probe Selectively Targeting Glutathione Peroxidase 4 In Vivo: Potential Applications in Pancreatic Cancer Therapy” (J Med Chem, 2024):
The source made the active and inactive calls. The rule behind the calls is not given here.

Target: T1, Phosphoglycerate kinase 1 (Homo sapiens) (UniProt P00558)
T1 sequence (whole entry): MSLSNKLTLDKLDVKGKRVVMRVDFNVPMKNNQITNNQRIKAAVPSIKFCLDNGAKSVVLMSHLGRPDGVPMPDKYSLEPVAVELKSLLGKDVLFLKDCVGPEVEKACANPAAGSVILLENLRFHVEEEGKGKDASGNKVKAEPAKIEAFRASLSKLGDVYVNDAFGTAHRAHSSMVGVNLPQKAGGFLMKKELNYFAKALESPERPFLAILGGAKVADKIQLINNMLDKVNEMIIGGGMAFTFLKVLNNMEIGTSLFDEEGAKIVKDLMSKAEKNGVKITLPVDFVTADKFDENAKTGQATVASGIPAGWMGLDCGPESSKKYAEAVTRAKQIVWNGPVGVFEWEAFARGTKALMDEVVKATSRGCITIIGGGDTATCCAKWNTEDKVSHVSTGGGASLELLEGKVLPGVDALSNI
Test: Binding affinity to PGK1 in human ASPC1 cells at 1 uM incubated for 5 hrs by Western blot analysis
Type: cell-based

C#CCN(Cc1ccc(S(=O)(=O)N(C)C#C)cc1)c1ccc(-c2nc3ccccc3s2)cc1
Activity: Active
